Columns and labels:
[1] = tested on: Human immunodeficiency virus 1; assay: Antiviral activity against HIV1 LAI infected in human CEM-SS cells assessed as reverse transcriptase activity after 5 days by MTT assay; assay type: functional, organism-based; conditions: Human immunodeficiency virus 1, LAI, 120 h
[2] = Cytotoxicity against human CEM-SS cells after 5 days by MTT assay; assay type: cell-based
[3] = Cytotoxicity against human MT4 cells after 4 days by MTT assay; assay type: cell-based
[4] = Apparent permeability from apical to basolateral side of human Caco-2 cells at 9.4 uM in donor chamber after 3 hrs; assay type: ADME, cell-based; conditions: read-out: permeability
[5] = Apparent permeability from basolateral to apical side of human Caco-2 cells at 9.4 uM in donor chamber after 3 hrs; assay type: ADME, cell-based; conditions: read-out: permeability
Caco-2 [6] = assay: Permeability from basolateral to apical side of human Caco-2 cells assessed as ratio of prodrug concentration in receiver to prodrug concentration in donor at 9.4 uM in donor chamber after 3 hrs; assay type: ADME, cell-based; conditions: caco-2, 3 h
Caco-2 [7] = assay: Permeability from apical to basolateral side of human Caco-2 cells assessed as ratio of prodrug concentration in receiver to prodrug concentration in donor at 9.4 uM in donor chamber after 3 hrs; assay type: ADME, cell-based; conditions: caco-2, 3 h
[8] = tested on: Human immunodeficiency virus 1; assay: Antiviral activity against HIV1 3B infected in human MT4 cells assessed as reverse transcriptase activity after 5 days by MTT assay; conditions: Human immunodeficiency virus 1, 3B, MT4, 120 h
[9] = Chemical stability assessed as hydrolysis half life at pH 7.3; assay type: physicochemical; conditions: buffer
[10] = tested on: Human immunodeficiency virus 1; assay: Antiviral activity against HIV1 LAI infected in human CEM-SS cells assessed as ratio of IC50 for prodrug to IC50 for parent compound; assay type: functional
Caco-2 [11] = assay: Permeability from apical to basolateral side of human Caco-2 cells assessed as ratio of prodrug concentration in receiver to prodrug concentration in donor at 330 uM in donor chamber after 3 hrs; assay type: ADME, cell-based; conditions: caco-2, 3 h
[12] = Apparent permeability from apical to basolateral side of human Caco-2 cells at 330 uM in donor chamber after 3 hrs; assay type: ADME, cell-based; conditions: read-out: permeability
Caco-2 [13] = assay: Permeability from basolateral to apical side of human Caco-2 cells assessed as ratio of prodrug concentration in receiver to prodrug concentration in donor at 330 uM in donor chamber after 3 hrs; assay type: ADME, cell-based; conditions: caco-2, 3 h
[14] = Apparent permeability from basolateral to apical side of human Caco-2 cells at 330 uM in donor chamber after 3 hrs; assay type: ADME, cell-based; conditions: read-out: permeability
[15] = tested on: Human immunodeficiency virus 1; assay: Antiviral activity against HIV1 3B infected in human MT4 cells assessed as ratio of IC50 for prodrug to IC50 for parent compound
Caco-2 [16] = assay: Permeability from basolateral to apical side of human Caco-2 cells assessed as ratio of prodrug concentration in receiver to prodrug concentration in donor at 150 uM in donor chamber after 3 hrs; assay type: ADME, cell-based; conditions: caco-2, 3 h
[17] = Apparent permeability from basolateral to apical side of human Caco-2 cells at 150 uM in donor chamber after 3 hrs; assay type: ADME, cell-based; conditions: read-out: permeability
Caco-2 [18] = assay: Permeability from apical to basolateral side of human Caco-2 cells assessed as ratio of prodrug concentration in receiver to prodrug concentration in donor at 21 uM in donor chamber after 3 hrs; assay type: ADME, cell-based; conditions: caco-2, 3 h
[19] = Apparent permeability from apical to basolateral side of human Caco-2 cells at 21 uM in donor chamber after 3 hrs; assay type: ADME, cell-based; conditions: read-out: permeability
Caco-2 [20] = assay: Permeability from basolateral to apical side of human Caco-2 cells assessed as ratio of prodrug concentration in receiver to prodrug concentration in donor at 21 uM in donor chamber after 3 hrs; assay type: ADME, cell-based; conditions: caco-2, 3 h
[21] = Apparent permeability from basolateral to apical side of human Caco-2 cells at 21 uM in donor chamber after 3 hrs; assay type: ADME, cell-based; conditions: read-out: permeability
Caco-2 [22] = assay: Permeability from apical to basolateral side of human Caco-2 cells assessed as ratio of prodrug concentration in receiver to prodrug concentration in donor at 26.5 uM in donor chamber after 3 hrs; assay type: ADME, cell-based; conditions: caco-2, 3 h
Caco-2 [23] = assay: Permeability from apical to basolateral side of human Caco-2 cells assessed as ratio of prodrug concentration in receiver to prodrug concentration in donor at 177 uM in donor chamber after 3 hrs; assay type: ADME, cell-based; conditions: caco-2, 3 h
[24] = Apparent permeability from apical to basolateral side of human Caco-2 cells at 26.5 uM in donor chamber after 3 hrs; assay type: ADME, cell-based; conditions: read-out: permeability
Caco-2 [25] = assay: Permeability from basolateral to apical side of human Caco-2 cells assessed as ratio of prodrug concentration in receiver to prodrug concentration in donor at 26.5 uM in donor chamber after 3 hrs; assay type: ADME, cell-based; conditions: caco-2, 3 h
Caco-2 [26] = assay: Permeability from basolateral to apical side of human Caco-2 cells assessed as ratio of prodrug concentration in receiver to prodrug concentration in donor at 177 uM in donor chamber after 3 hrs; assay type: ADME, cell-based; conditions: caco-2, 3 h
[27] = Apparent permeability from basolateral to apical side of human Caco-2 cells at 26.5 uM in donor chamber after 3 hrs; assay type: ADME, cell-based; conditions: read-out: permeability
Caco-2 [28] = assay: Permeability from basolateral to apical side of human Caco-2 cells assessed as ratio of prodrug concentration in receiver to prodrug concentration in donor at 185 uM in donor chamber after 3 hrs; assay type: ADME, cell-based; conditions: caco-2, 3 h
[29] = Apparent permeability from basolateral to apical side of human Caco-2 cells at 185 uM in donor chamber after 3 hrs; assay type: ADME, cell-based; conditions: read-out: permeability
[30] = Apparent permeability from apical to basolateral side of human Caco-2 cells at 177 uM in donor chamber after 3 hrs; assay type: ADME, cell-based; conditions: read-out: permeability
[31] = Apparent permeability from basolateral to apical side of human Caco-2 cells at 177 uM in donor chamber after 3 hrs; assay type: ADME, cell-based; conditions: read-out: permeability
Caco-2 [32] = assay: Permeability from apical to basolateral side of human Caco-2 cells assessed as ratio of prodrug concentration in receiver to prodrug concentration in donor at 80 uM in donor chamber after 3 hrs; assay type: ADME, cell-based; conditions: caco-2, 3 h
[33] = Apparent permeability from apical to basolateral side of human Caco-2 cells at 80 uM in donor chamber after 3 hrs; assay type: ADME, cell-based; conditions: read-out: permeability
Caco-2 [34] = assay: Permeability from basolateral to apical side of human Caco-2 cells assessed as ratio of prodrug concentration in receiver to prodrug concentration in donor at 80 uM in donor chamber after 3 hrs; assay type: ADME, cell-based; conditions: caco-2, 3 h
[35] = Apparent permeability from basolateral to apical side of human Caco-2 cells at 80 uM in donor chamber after 3 hrs; assay type: ADME, cell-based; conditions: read-out: permeability
[36] = Apparent permeability from apical to basolateral side of human Caco-2 cells at 175 uM in donor chamber after 3 hrs; assay type: ADME, cell-based; conditions: read-out: permeability
[37] = Apparent permeability from basolateral to apical side of human Caco-2 cells at 175 uM in donor chamber after 3 hrs; assay type: ADME, cell-based; conditions: read-out: permeability

Structure (SMILES)	half-life [9]	IC50 [1]	CC50 at 120 h [2]	CC50 at 96 h [3]	IC50 [8]	Ratio IC50 [10]	Ratio IC50 [15]	other results
CC(C)(C)NC(=O)[C@@H]1C[C@@H]2CCCC[C@@H]2CN1C[C@@H](O)[C@H](Cc1ccccc1)NC(=O)[C@H](CC(N)=O)NC(=O)c1ccc2ccccc2n1		9 nM	> 10000 nM	> 10000 nM	18 nM			Papp A→B at 3 h, 9.4 µM [4]: 3.98 ×10⁻⁶ cm/s; Papp B→A at 3 h, 9.4 µM [5]: 1.1 ×10⁻⁶ cm/s; Activity (Caco-2 [6]): 10.3%; Activity (Caco-2 [7]): 2.6%
CC(C)[C@H](N)C(=O)O[C@H](CN1C[C@H]2CCCC[C@H]2C[C@H]1C(=O)NC(C)(C)C)[C@H](Cc1ccccc1)NC(=O)[C@H](CC(N)=O)NC(=O)c1ccc2ccccc2n1.O=C(O)C(F)(F)F	40 h	140 nM	> 10000 nM	> 10000 nM	290 nM	16	16	Activity (Caco-2 [18]): 6.1%; Papp A→B at 3 h, 21 µM [19]: 2.32 ×10⁻⁶ cm/s; Activity (Caco-2 [20]): 9.6%; Papp B→A at 3 h, 21 µM [21]: 3.43 ×10⁻⁶ cm/s
Cc1c(OC(=O)CCCCCNC(=O)[C@@H](N)C(C)C)cccc1C(=O)N[C@@H](CSc1ccccc1)[C@H](O)CN1C[C@H]2CCCC[C@H]2C[C@H]1C(=O)NC(C)(C)C.O=C(O)C(F)(F)F	72 h	94 nM	> 10000 nM	10000 nM	230 nM	47		
CC(C)[C@@H](N)C(=O)NCCCCCC(=O)O[C@H](CN1C[C@H]2CCCC[C@H]2C[C@H]1C(=O)NC(C)(C)C)[C@H](Cc1ccccc1)NC(=O)[C@H](CC(N)=O)NC(=O)c1ccc2ccccc2n1.O=C(O)C(F)(F)F.O=C(O)C(F)(F)F.O=C(O)C(F)(F)F	60 h	175 nM	9000 nM	5300 nM	340 nM	19	19	Activity (Caco-2 [22]): 2.2%; Activity (Caco-2 [11]): 15.6%; Activity (Caco-2 [23]): 14%; Papp A→B at 3 h, 26.5 µM [24]: 0.58 ×10⁻⁶ cm/s; Activity (Caco-2 [25]): 4.8%; Activity (Caco-2 [13]): 18.1%; Activity (Caco-2 [26]): 14.6%; Papp B→A at 3 h, 26.5 µM [27]: 1.87 ×10⁻⁶ cm/s
Cc1c(O)cccc1C(=O)N[C@@H](CSc1ccccc1)[C@H](O)CN1C[C@H]2CCCC[C@H]2C[C@H]1C(=O)NC(C)(C)C		2 nM						Activity (Caco-2 [32]): 2.7%; Papp A→B at 3 h, 80 µM [33]: 1.03 ×10⁻⁶ cm/s; Activity (Caco-2 [34]): 6.3%; Papp B→A at 3 h, 80 µM [35]: 2.51 ×10⁻⁶ cm/s
CC(C)(C)NC(=O)[C@@H]1CN(Cc2cccnc2)CCN1C[C@@H](O)C[C@@H](Cc1ccccc1)C(=O)N[C@H]1c2ccccc2C[C@H]1O.O=S(=O)(O)O [INDINAVIR SULFATE]		≤ 10 nM	> 100000 nM	> 100000 nM	22 nM			Papp A→B at 3 h, 175 µM [36]: 1.03 ×10⁻⁶ cm/s; Papp B→A at 3 h, 175 µM [37]: 15.5 ×10⁻⁶ cm/s

More lines, main results first:

half-life [9]	Structure (SMILES)	IC50 [1]	CC50 at 120 h [2]	CC50 at 96 h [3]	IC50 [8]	Ratio IC50 [10]	Ratio IC50 [15]	other results
46 h	CC(C)[C@H](N)C(=O)O[C@@H]1Cc2ccccc2[C@@H]1NC(=O)[C@H](Cc1ccccc1)C[C@H](O)CN1CCN(Cc2cccnc2)C[C@H]1C(=O)NC(C)(C)C.O=C(O)C(F)(F)F	17 nM	> 100000 nM	> 100000 nM	150 nM	>=1.7	7	Activity (Caco-2 [11]): 15.6%; Papp A→B at 3 h, 330 µM [12]: 6.44 ×10⁻⁶ cm/s; Activity (Caco-2 [13]): 18.1%; Papp B→A at 3 h, 330 µM [14]: 7.37 ×10⁻⁶ cm/s
80 h	CC(C)[C@H](N)C(=O)NCCCCCC(=O)O[C@@H](C[C@@H](Cc1ccccc1)C(=O)N[C@H]1c2ccccc2C[C@H]1OC(=O)CCCCCNC(=O)[C@@H](N)C(C)C)CN1CCN(Cc2cccnc2)C[C@H]1C(=O)NC(C)(C)C.O=C(O)C(F)(F)F.O=C(O)C(F)(F)F	640 nM	> 50000 nM	45000 nM	2950 nM	>=64	134	Activity (Caco-2 [16]): 2.1%; Papp B→A at 3 h, 150 µM [17]: 6.26 ×10⁻⁶ cm/s
72 h	CC(C)[C@H](N)C(=O)NCCCCCC(=O)O[C@@H]1Cc2ccccc2[C@@H]1NC(=O)[C@H](Cc1ccccc1)C[C@H](O)CN1CCN(Cc2cccnc2)C[C@H]1C(=O)NC(C)(C)C.O=C(O)C(F)(F)F	36 nM	> 10000 nM	47000 nM	230 nM	>=3.6	10	Activity (Caco-2 [28]): 9%; Papp B→A at 3 h, 185 µM [29]: 2.92 ×10⁻⁶ cm/s
68 h	CC(C)[C@H](N)C(=O)O[C@@H](C[C@@H](Cc1ccccc1)C(=O)N[C@H]1c2ccccc2C[C@H]1O)CN1CCN(Cc2cccnc2)C[C@H]1C(=O)NC(C)(C)C.O=C(O)C(F)(F)F	90 nM	> 100000 nM	100000 nM	27 nM	>=9	1	Activity (Caco-2 [23]): 14%; Papp A→B at 3 h, 177 µM [30]: 5.13 ×10⁻⁶ cm/s; Activity (Caco-2 [26]): 14.6%; Papp B→A at 3 h, 177 µM [31]: 7.08 ×10⁻⁶ cm/s
82 h	Cc1c(OC(=O)CCCCCNC(=O)[C@@H](N)C(C)C)cccc1C(=O)N[C@@H](CSc1ccccc1)[C@@H](CN1C[C@H]2CCCC[C@H]2C[C@H]1C(=O)NC(C)(C)C)OC(=O)CCCCCNC(=O)[C@H](N)C(C)C.O=C(O)C(F)(F)F.O=C(O)C(F)(F)F	15500 nM	5000 nM	4800 nM		7750		
